One test relates to HCT116 MTAP WT cells. Nature of the test: Proliferation inhibition of HCT116 cells in vitro (CellTiter Glo). The test is classed as cell-based. The note with it: 6 days, 9 concentrations starting from 30 μM, read-out: Cell proliferation inhibition rate HCT116 MTAP WT IC50 (nm). An outline of the steps:
(§1)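 HCT116 (MTAP WT) or CRISPR MTAP-knockout HCT116 cells (100 per well) were exposed for 6 days at 37 °C to 9-point, 3-fold dilutions starting at 30 μM (WT) or 3 μM (KO), with 0.4% DMSO final. Viability was read by CellTiter-Glo luminescence, and IC50 came from a four-parameter fit.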
In general terms: Cellular ATP, detected with luciferase, serves as a proxy for viable cell number.

For test [1], the system named is HCT116-MTAP-KO cells (HCT116 MTAP null). In words: Proliferation inhibition of HCT116 MTAP-KO cells in vitro (CellTiter Glo). The test is classed as cell-based. Particulars: 6 days, 9 concentrations starting from 3 μM, read-out: Cell proliferation inhibition rate HCT116 MTAP null IC50 (nm). An outline of the steps:
as §1

Like-named read-outs stand apart in the source and are kept apart here.

As to `Cc1ncc2c(N)nc3cc(F)c(C(=O)N(Cc4cnn(-c5ccccn5)c4)c4ccnn4C)cc3n12` [Example 234], the IC50 with HCT116 MTAP WT cells (Homo sapiens, HCT-116, 144 h) is 1 to 10 µM; in test [1] (HCT116-MTAP null, 144 h) it was less than 0.1 µM.
The matching figures for `COC1CCC1N(Cc1cn2cc(C(F)(F)F)ccc2n1)C(=O)c1cc2c(cc1F)nc(N)c1cnc(C)n12` (stereo not drawn) [Example 240]: 1 to 10 µM and less than 0.1 µM.
As for `Cc1ncc2c(N)nc3cc(F)c(C(=O)N(Cc4cn5ccccc5n4)C(C)C(F)(F)F)cc3n12` (stereo not drawn) [Example 243], the IC50 in the test on HCT116 MTAP WT cells (Homo sapiens, HCT-116, 144 h) was in the range of 1 to 10 µM; in test [1] (HCT116-MTAP null, 144 h), 0.1 to 1 µM.
The like results for `CCN(Cc1cn2cc(C(F)F)ccc2n1)C(=O)c1cc2c(cc1F)nc(N)c1c(C)ncn12` [Example 244] were, in that order, 1 to 10 µM and less than 0.1 µM.
With `COc1ccc(C2COCC(C)N2C(=O)c2cc3c(cc2F)nc(N)c2cnc(C)n23)nn1` (stereo not drawn) [Example 271], the IC50 with HCT116 MTAP WT cells (Homo sapiens, HCT-116, 144 h) is 1 to 10 µM; in test [1] (HCT116-MTAP null, 144 h) it was less than 0.1 µM.
For `Cc1ncc2c(N)nc3cc(F)c(C(=O)N4C(C)COCC4c4ccc(C(F)(F)F)cn4)cc3n12` (stereo not drawn) [Example 273], the IC50 in the test on HCT116 MTAP WT cells (Homo sapiens, HCT-116, 144 h) was 1 to 10 µM; in test [1] (HCT116-MTAP null, 144 h), less than 0.1 µM.
The matching figures for `Cc1ncc2c(N)nc3cc(F)c(C(=O)N4C(C)COCC4c4ccc(C(F)(F)F)cc4)cc3n12` (stereo not drawn) [Example 275]: 1 to 10 µM and less than 0.1 µM.
The matching figures for `COc1ccc(C2COCC(C)N2C(=O)c2cc3c(cc2F)nc(N)c2c(C)ncn23)nn1` (stereo not drawn) [Example 278]: 0.1 to 1 µM and 0.1 to 1 µM.
On to `Cc1ncn2c1c(N)nc1cc(F)c(C(=O)N3C(C)COCC3c3ccc(C(F)(F)F)cn3)cc12` (stereo not drawn) [Example 280], for which the IC50 is 0.1 to 1 µM with HCT116 MTAP WT cells and less than 0.1 µM in test [1] (HCT116-MTAP null, 144 h).
For `Cc1ncn2c1c(N)nc1cc(F)c(C(=O)N3C(C)COCC3c3ccc(C(F)(F)F)cc3)cc12` (stereo not drawn) [Example 282], the IC50 with HCT116 MTAP WT cells (Homo sapiens, HCT-116, 144 h) was 1 to 10 µM; in test [1] (HCT116-MTAP null, 144 h), less than 0.1 µM.
The like results for `CCN(Cc1cn2cc(C(F)(F)F)ccc2n1)C(=O)c1cc2c(cc1F)nc(N)c1c(C)ncn12` [Example 285] were, in that order, 1 to 10 µM and less than 0.1 µM.
For `Cc1ncn2c1c(N)nc1ccc(C(=O)N(Cc3nc(-c4cccnn4)cs3)CC(C)C)cc12` [Example 294], the IC50 with HCT116 MTAP WT cells (Homo sapiens, HCT-116, 144 h) is 1 to 10 µM; in test [1] (HCT116-MTAP null, 144 h) it was 0.1 to 1 µM.
The matching figures for `Cc1ncn2c1c(N)nc1ccc(C(=O)N(CC(C)C)C(C)c3nc(-c4ccccn4)cs3)cc12` (stereo not drawn) [Example 299]: 1 to 10 µM and less than 0.1 µM.
The matching figures for `Cc1ncn2c1c(N)nc1ccc(C(=O)N(Cc3nc(N4CCOCC4)cs3)CC(C)C)cc12` [Example 301]: 1 to 10 µM and 0.1 to 1 µM.
The matching figures for `Cc1ncn2c1c(N)nc1ccc(C(=O)N(Cc3nc(C4=CCOCC4)cs3)CC(C)C)cc12` [Example 303]: 1 to 10 µM and less than 0.1 µM.
For `Cc1ncn2c1c(N)nc1ccc(C(=O)N(Cc3nc(-c4ncccn4)cs3)CC(C)C)cc12` [Example 305], the IC50 was 1 to 10 µM with HCT116 MTAP WT cells (Homo sapiens, HCT-116, 144 h) and less than 0.1 µM in test [1] (HCT116-MTAP null, 144 h).
Turning to `Cc1ncn2c1c(N)nc1ccc(C(=O)N(Cc3nc(-c4ccccn4)cs3)CC(C)C)cc12` [Example 307], the IC50 in the test on HCT116 MTAP WT cells (Homo sapiens, HCT-116, 144 h) is 1 to 10 µM; in test [1] (HCT116-MTAP null, 144 h), less than 0.1 µM.
`Cc1cccc(-c2ncc(CN(CC(C)C)C(=O)c3ccc4nc(N)c5c(C)ncn5c4c3)[nH]2)n1` [Example 308]: the IC50 in the test with HCT116 MTAP WT cells (Homo sapiens, HCT-116, 144 h) was in the range of 1 to 10 µM; in test [1] (HCT116-MTAP null, 144 h), 0.1 to 1 µM.
As for `Cc1ncn2c1c(N)nc1ccc(C(=O)N(Cc3nc(C4CCOCC4)cs3)CC(C)C)cc12` [Example 310], the IC50 in the test with HCT116 MTAP WT cells (Homo sapiens, HCT-116, 144 h) was 1 to 10 µM; in test [1] (HCT116-MTAP null, 144 h), less than 0.1 µM.
The matching figures for `Cc1cccc(-c2csc(CN(CC(C)C)C(=O)c3ccc4nc(N)c5c(C)ncn5c4c3)n2)n1` [Example 312]: 1 to 10 µM and less than 0.1 µM.
As to `Cc1cnn2c1c(N)nc1ccc(C(=O)N(Cc3ccc(C(F)(F)F)cn3)C(C)c3ncccn3)cc12` (stereo not drawn) [Example 315], the IC50 (in the test on HCT116 MTAP WT cells; in test [1]) was less than 0.1 µM throughout.
As for `Cc1ncc2c(N)nc3cc(F)c(C(=O)N(Cc4cnn(C5CC5)c4)c4ccnn4C)cc3n12` [Example 317], the IC50 is 1 to 10 µM in the test with HCT116 MTAP WT cells (Homo sapiens, HCT-116, 144 h) and less than 0.1 µM in test [1] (HCT116-MTAP null, 144 h).
As for `Cc1ncc2c(N)nc3cc(F)c(C(=O)N(Cc4cnc(C5CC5)n4C)c4ccnn4C)cc3n12` [Example 318], the IC50 in the test with HCT116 MTAP WT cells (Homo sapiens, HCT-116, 144 h) lay within 1 to 10 µM; in test [1] (HCT116-MTAP null, 144 h), 0.1 to 1 µM.
The like results for `Cc1ncc2c(N)nc3cc(F)c(C(=O)N(Cc4cnn(CC(F)(F)F)c4)c4ccnn4C)cc3n12` [Example 319] were, in that order, 1 to 10 µM and 0.1 to 1 µM.
Consider `COCCN(C)c1ccc(CN(C(=O)c2cc3c(cc2F)nc(N)c2cnc(C)n23)c2ccnn2C)nc1` [Example 320], for which the IC50 in the test with HCT116 MTAP WT cells (Homo sapiens, HCT-116, 144 h) is 1 to 10 µM; in test [1] (HCT116-MTAP null, 144 h), 0.1 to 1 µM.
For `Cc1ncc2c(N)nc3cc(F)c(C(=O)N(Cc4cccc(C(F)(F)F)n4)c4ccnn4C)cc3n12` [Example 326], the IC50 in the test on HCT116 MTAP WT cells (Homo sapiens, HCT-116, 144 h) was 1 to 10 µM; in test [1] (HCT116-MTAP null, 144 h), less than 0.1 µM.
In the case of `Cn1ncc2c(N)nc3cc(F)c(C(=O)N4CCC5(CCN(c6ccc(C(F)(F)F)cc6)CC5)C4)cc3c21` [Example 414], the IC50 in the test on HCT116 MTAP WT cells (Homo sapiens, HCT-116, 144 h) was in the range of 1 to 10 µM; in test [1] (HCT116-MTAP null, 144 h), 0.1 to 1 µM.

The values are drawn from US20250376473A1, “PRMTS INHIBITOR AND USE THEREOF” (Cytosinlab Therapeutics Co., Ltd., priority 2022, published 2025).
